Assay results as given in patent US20060264419A1 (priority 2003, published 2006).

Target: 5-HT2A receptors (Rattus norvegicus, UniProt P14842)
Assay: in-vitro affinity to 5-HT2A receptors, displacement of [3H]ketanserine (Example A1)
Assay type: binding
Settings: read-out: HT2A IC50
Excerpt: The 5-HT2A receptors are exposed both to [^3H]ketanserine (a substance which is known for its affinity to the receptor) and also to the test compound. The decrease in the affinity of [^3H]ketanserine to the receptor is an indication of the affinity of the test substance to the 5-HT2A receptor.

Sequence of 5-HT2A receptors (P14842 whole entry): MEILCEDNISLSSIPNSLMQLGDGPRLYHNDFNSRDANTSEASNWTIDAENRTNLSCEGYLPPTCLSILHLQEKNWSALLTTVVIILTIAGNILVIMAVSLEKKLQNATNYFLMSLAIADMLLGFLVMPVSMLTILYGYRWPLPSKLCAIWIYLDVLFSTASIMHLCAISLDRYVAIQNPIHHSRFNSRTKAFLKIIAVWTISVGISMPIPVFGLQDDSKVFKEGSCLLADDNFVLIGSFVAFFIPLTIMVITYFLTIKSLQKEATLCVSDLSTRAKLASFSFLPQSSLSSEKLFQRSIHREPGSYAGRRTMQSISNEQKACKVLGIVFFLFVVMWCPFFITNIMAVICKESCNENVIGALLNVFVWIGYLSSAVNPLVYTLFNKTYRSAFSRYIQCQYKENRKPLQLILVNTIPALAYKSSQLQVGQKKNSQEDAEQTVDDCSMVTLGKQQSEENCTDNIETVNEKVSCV

Structure (SMILES)	IC50
Fc1ccccc1-c1c(CNC2CN3CCC2CC3)cnn1-c1ccc(-c2ccccc2)cc1 (stereo not drawn) [Example 991, (1-Azabicyclo[2.2.2]oct-3-yl)-[1-biphenyl-4-yl-5-(2-fluorophenyl)-1H-pyrazol-4-ylmethyl]-amine]	0.14 µM
CN1CCN(Cc2cnn(-c3ccc(-c4ccc(F)cc4)cc3)c2-c2cnccn2)CC1 [Example 972, 2-[2-(4′-Fluorobiphenyl-4-yl)-4-(4-methyl-piperazin-1-ylmethyl)-2H-pyrazol-3-yl]-pyrazine]	0.085 µM

Next, values leading:

IC50	Structure (SMILES)
0.13 µM	CN1CCN(Cc2cnn(-c3ccc(Br)cc3)c2-c2ccccc2F)CC1 [Example 989, 1-[1-(4-Bromophenyl)-5-(2-fluoro-phenyl)-1H-pyrazol-4-ylmethyl]-4-methylpiperazine]
0.14 µM	OCc1cnn(-c2ccc(-c3ccc(F)cc3)cc2)c1-c1cccc(Cl)c1 [Example 992, [5-(3-Chlorophenyl)-1-(4′-fluoro-biphenyl-4-yl)-1H-pyrazol-4-yl]methanol]
0.31 µM	Fc1ccccc1-c1c(CNC2CCN(Cc3ccccc3)C2)cnn1-c1ccc(-c2ccccc2)cc1 (stereo not drawn) [Example 1036, (1-Benzylpyrrolidin-3-yl)-[1-biphenyl-4-yl-5-(2-fluorophenyl)-1H-pyrazol-4-ylmethyl]amine]
0.311 µM	O=C(CN1CCN(Cc2cnn(-c3ccc(-c4ccccc4)cc3)c2-c2ccccc2F)CC1)N1CCCC1 [Example 1038, 2-{4-[1-Biphenyl-4-yl-5-(2-fluoro-phenyl)-1H-pyrazol-4-ylmethyl]piperazin-1-yl}-1-pyrrolidin-1-ylethanone]
0.056 µM	COc1ccc(-c2c(CN3CCN(CCN4CCCC4)CC3)cnn2-c2ccc(-c3ccc(F)cc3)cc2)cc1 [Example 954, 1-[1-(4′-Fluorobiphenyl-4-yl)-5-(4-methoxy-phenyl)-1H-pyrazol-4-ylmethyl]-4-(2-pyrroli-din-1-ylethyl)piperazine]
0.053 µM	Fc1ccc(CCN2CCN(Cc3cnn(-c4ccccn4)c3-c3ccccc3F)CC2)cc1 [Example 950, 1-[2-(4-Fluorophenyl)ethyl]-4-[5-(2-fluoro-phenyl)-1-pyridin-2-yl-1H-pyrazol-4-ylmethyl]-piperazine]

Same assay, conditions: target not given; description names affinity to 5-HT2A receptors; read-out: IC50

Structure (SMILES)	IC50
Fc1ccccc1-c1c(CN2CCCC2)cnn1-c1ccc(-c2ccccc2)cc1 [(35), 1-Biphenyl-4-yl-5-(2-fluorophenyl)-4-pyrrolidin-1-ylmethyl-1H-pyrazole]	0.032 µM
CN1CCN(Cc2cnn(-c3ccc(-c4cc(F)ccc4F)cc3)c2-c2ccc(F)cc2)CC1 [(101), 1-[1-(2′,5′-Difluorobiphenyl-4-yl)-5-(4-fluorophenyl)-1H-pyrazol-4-ylmethyl]-4-methylpiperazine]	0.24 µM
O=C1NCN(c2ccccc2)C12CCN(Cc1cnn(-c3ccc(-c4ccccc4)cc3)c1-c1ccccc1F)CC2 [(94), 8-[1-Biphenyl-4-yl-5-(2-fluorophenyl)-1H-pyrazol-4-ylmethyl]-1-phenyl-1,3,8-triazaspiro[4.5]decan-4-one]	0.4 µM
CN1CCN(Cc2cnn(-c3ccc(-c4ccc(F)cc4)cc3)c2-c2ccccc2)CC1 [(97), 1-[1-(4′-Fluorobiphenyl-4-yl)-5-phenyl-1H-pyrazol-4-ylmethyl]-4-methylpiperazine]	0.013 µM
COc1ccccc1-c1c(CN2CCN(C)CC2)cnn1-c1ccc(-c2ccccc2F)cc1 [(104), 1-[1-(2′-Fluorobiphenyl-4-yl)-5-(2-methoxyphenyl)-1H-pyrazol-4-ylmethyl]-4-methylpiperazine]	0.052 µM
Fc1ccccc1-c1c(CNC2CCN(Cc3ccccc3)C2)cnn1-c1ccc(-c2ccccc2)cc1 (stereo not drawn) [(161), (1-Benzylpyrrolidin-3-yl)-[1-biphenyl-4-yl-5-(2-fluorophenyl)-1H-pyrazol-4-ylmethyl]amine]	0.31 µM
Fc1ccccc1-c1c(CNC2CCNCC2)cnn1-c1ccc(-c2ccccc2)cc1 [(74), [1-Biphenyl-4-yl-5-(2-fluorophenyl)-1H-pyrazol-4-ylmethyl]-piperidin-4-ylamine]	0.47 µM
CN1CCN(Cc2cnn(-c3ccc(-c4ccsc4)cc3)c2-c2ccccc2F)CC1 [(66), 1-[5-(2-Fluorophenyl)-1-(4-thiophen-3-ylphenyl)-1H-pyrazol-4-ylmethyl]-4-methylpiperazine]	0.014 µM
CCOC(=O)N1CCC(N(C)Cc2cnn(-c3ccc(-c4ccccc4)cc3)c2-c2ccccc2F)CC1 [(110), Ethyl 4-{[1-biphenyl-4-yl-5-(2-fluorophenyl)-1H-pyrazol-4-ylmethyl]methylamino}piperidine-1-carboxylate]	0.17 µM
CN1CCN(Cc2cnn(-c3ccc(-c4ccccc4)cc3)c2-c2ccccn2)CC1 [(58), 1-(1-Biphenyl-4-yl-5-pyridin-2-yl-1H-pyrazol-4-ylmethyl)-4-methylpiperazine]	0.05 µM
COC(=O)CCNCc1cnn(-c2ccc(-c3ccccc3)cc2)c1-c1cccnc1 [(183), Methyl 3-[(1-biphenyl-4-yl-5-pyridin-3-yl-1H-pyrazol-4-ylmethyl)amino]propionate]	0.83 µM
c1ccc(-c2ccc(-n3ncc(CNCc4ccccn4)c3-c3ccccc3)cc2)cc1 [(172), (1-Biphenyl-4-yl-5-phenyl-1H-pyrazol-4-ylmethyl)pyridin-2-ylmethylamine]	0.023 µM
CN1CCN(Cc2cnn(-c3ccc(-n4cccc4)cc3)c2-c2ccccc2F)CC1 [(106), 1-[5-(2-Fluorophenyl)-1-(4-pyrrol-1-ylphenyl)-1H-pyrazol-4-ylmethyl]-4-methylpiperazine]	0.017 µM
CN1CCN(Cc2cnn(-c3ccc(-c4ccncc4)cc3)c2-c2ccccc2F)CC1 [(121), 1-[5-(2-Fluorophenyl)-1-(4-pyridin-4-ylphenyl)-1H-pyrazol-4-ylmethyl]-4-methylpiperazine]	0.077 µM
NC(=O)CN1CCN(Cc2cnn(-c3ccc(-c4ccccc4)cc3)c2-c2ccccc2F)CC1 [(111), 2-{4-[1-Biphenyl-4-yl-5-(2-fluorophenyl)-1H-pyrazol-4-ylmethyl]piperazin-1-yl}acetamide]	0.36 µM
CN1CCN(Cc2cnn(-c3ccc(-c4ccc(F)cc4)cc3)c2-c2ccccc2F)CC1 [(64), 1-[1-(4′-Fluorobiphenyl-4-yl)-5-(2-fluorophenyl)-1H-pyrazol-4-ylmethyl]-4-methylpiperazine]	0.0078 µM
CC1CN(Cc2cnn(-c3ccc(-c4ccccc4)cc3)c2-c2ccccc2F)CC(C)N1 (stereo not drawn) [(95), 1-[1-Biphenyl-4-yl-5-(2-fluorophenyl)-1H-pyrazol-4-ylmethyl]-3,5-dimethylpiperazine]	0.1 µM

Next, values leading:

IC50	Structure (SMILES)
0.14 µM	CN(C)CCN(C)Cc1cnn(-c2ccc(-c3ccc(F)cc3)nc2)c1-c1ccccc1F [(141), N-{5-(2-fluorophenyl)-1-[6-(4-fluorophenyl)pyridin-3-yl]-1H-pyrazol-4-ylmethyl}-N,N′,N′-trimethylethane-1,2-diamine]
0.44 µM	CN(C)CCN(C)Cc1cnn(-c2ccc(-c3ccccc3)nc2)c1-c1ccccc1F [(127), N-[5-(2-Fluorophenyl)-1-(6-phenylpyridin-3-yl)-1H-pyrazol-4-ylmethyl]-N,N′,N′-trimethylethane-1,2-diamine]
0.37 µM	Fc1ccc(F)c(-c2ccc(-n3ncc(CNCC4CCCO4)c3-c3ccccc3F)cc2)c1 (stereo not drawn) [(122), [1-(2′,5′-Difluorobiphenyl-4-yl)-5-(2-fluorophenyl)-1H-pyrazol-4-ylmethyl](tetrahydrofuran-2-ylmethyl)amine]
0.58 µM	CCOC(=O)N1CCC(NCc2cnn(-c3ccc(-c4ccccc4)cc3)c2-c2ccccc2F)CC1 [(72), Ethyl 4-{[1-biphenyl-4-yl-5-(2-fluorophenyl)-1H-pyrazol-4-ylmethyl]amino}piperidine-1-carboxylate]
0.6 µM	Fc1ccccc1-c1ccc(-n2ncc(CN3CCOCC3)c2-c2ccccc2F)cn1 [(146), 4-{5-(2-Fluorophenyl)-1-[6-(2-fluorophenyl)pyridin-3-yl]-1H-pyrazol-4-ylmethyl}morpholine]
0.51 µM	O=C1NCCCCC1NCc1cnn(-c2ccc(-c3ccccc3)cc2)c1-c1ccccc1F (stereo not drawn) [(163), 3-{[1-Biphenyl-4-yl-5-(2-fluorophenyl)-1H-pyrazol-4-ylmethyl]-amino}azepan-2-one]
0.2 µM	CN(C)C1CCN(Cc2cnn(-c3ccc(-c4ccccc4)cc3)c2-c2ccccc2F)CC1 [(37), {1-[1-Biphenyl-4-yl-5-(2-fluorophenyl)-1H-pyrazol-4-ylmethyl]-piperidin-4-yl}dimethylamine]
0.3 µM	CN1CCN(Cc2cc(-c3ccccc3F)n(-c3ccc(-c4ccccc4)cc3)n2)CC1 [(45), 1-[1-Biphenyl-4-yl-5-(2-fluorophenyl)-1H-pyrazol-3-ylmethyl]-4-methylpiperazine]
0.075 µM	Fc1ccc(-c2ccc(-n3ncc(CN4CCCC4)c3-c3ccccc3F)cn2)cc1 [(142), 2-(4-Fluorophenyl)-5-[5-(2-fluorophenyl)-4-pyrrolidin-1-ylmethylpyrazol-1-yl]pyridine]
0.87 µM	NC(=O)C1CCN(Cc2cnn(-c3ccc(-c4ccccc4)cc3)c2-c2ccccc2F)CC1 [(85), 1-[1-Biphenyl-4-yl-5-(2-fluorophenyl)-1H-pyrazol-4-ylmethyl]-piperidine-4-carboxamide]
0.83 µM	CS(=O)(=O)N1CCN(Cc2cnn(-c3ccc(-c4ccccc4)cc3)c2-c2ccccc2F)CC1 [(123), 1-[1-Biphenyl-4-yl-5-(2-fluorophenyl)-1H-pyrazol-4-ylmethyl]-4-methanesulfonylpiperazine]
1.1 µM	CCOC(=O)CNC(=O)CNCc1cnn(-c2ccc(-c3ccccc3)cc2)c1-c1ccccc1F [(153), Ethyl (2-{[1-Biphenyl-4-yl-5-(2-fluorophenyl)-1H-pyrazol-4-ylmethyl]amino}ethanoylamino)acetate]
0.17 µM	Fc1ccccc1-c1c(CN2CC=CCC2)cnn1-c1ccc(-c2ccccc2)cc1 [(38), 1-[1-Biphenyl-4-yl-5-(2-fluorophenyl)-1H-pyrazol-4-ylmethyl]-1,2,3,6-tetrahydropyridine]
0.16 µM	Fc1ccccc1-c1c(CN2CC3CC2CO3)cnn1-c1ccc(-c2ccccc2)cc1 (stereo not drawn) [(82), 5-[1-Biphenyl-4-yl-5-(2-fluorophenyl)-1H-pyrazol-4-ylmethyl]-2-oxa-5-azabicyclo[2.2.1]heptane]
